# According to US11697648B2, “Fused pyrimidine pyridinone compounds as JAK inhibitors” (THERAVANCE BIOPHARMA R&D IP, LLC, priority 2019, dated 2023):
# Assays:
# [1] = system: IL-2 stimulated STAT5 phosphorylation in Tall-1 human T cell line (JAK3); experiment: Cellular JAK3 potency assay: inhibition of IL-2 stimulated pSTAT5 in Tall-1 T cells; format: cell-based; settings: IL-2 stimulated pSTAT5, Tall-1 T cells
# How it was run: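 Tall-1 cells, 45,000 per well, preincubated 1 hour with compound at 37 °C, then stimulated 30 minutes with IL-2 at 300 ng/ml final. pSTAT5 (Tyr694/699) in lysates quantified by AlphaLISA SureFire Ultra. pIC50 derived from inhibition curves, given as mean with SD.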
# JAK2 = JAK2 (Homo sapiens (Human), UniProt O60674); experiment: Biochemical JAK2 kinase assay (LanthaScreen)
# Chain of JAK2 (O60674 whole entry): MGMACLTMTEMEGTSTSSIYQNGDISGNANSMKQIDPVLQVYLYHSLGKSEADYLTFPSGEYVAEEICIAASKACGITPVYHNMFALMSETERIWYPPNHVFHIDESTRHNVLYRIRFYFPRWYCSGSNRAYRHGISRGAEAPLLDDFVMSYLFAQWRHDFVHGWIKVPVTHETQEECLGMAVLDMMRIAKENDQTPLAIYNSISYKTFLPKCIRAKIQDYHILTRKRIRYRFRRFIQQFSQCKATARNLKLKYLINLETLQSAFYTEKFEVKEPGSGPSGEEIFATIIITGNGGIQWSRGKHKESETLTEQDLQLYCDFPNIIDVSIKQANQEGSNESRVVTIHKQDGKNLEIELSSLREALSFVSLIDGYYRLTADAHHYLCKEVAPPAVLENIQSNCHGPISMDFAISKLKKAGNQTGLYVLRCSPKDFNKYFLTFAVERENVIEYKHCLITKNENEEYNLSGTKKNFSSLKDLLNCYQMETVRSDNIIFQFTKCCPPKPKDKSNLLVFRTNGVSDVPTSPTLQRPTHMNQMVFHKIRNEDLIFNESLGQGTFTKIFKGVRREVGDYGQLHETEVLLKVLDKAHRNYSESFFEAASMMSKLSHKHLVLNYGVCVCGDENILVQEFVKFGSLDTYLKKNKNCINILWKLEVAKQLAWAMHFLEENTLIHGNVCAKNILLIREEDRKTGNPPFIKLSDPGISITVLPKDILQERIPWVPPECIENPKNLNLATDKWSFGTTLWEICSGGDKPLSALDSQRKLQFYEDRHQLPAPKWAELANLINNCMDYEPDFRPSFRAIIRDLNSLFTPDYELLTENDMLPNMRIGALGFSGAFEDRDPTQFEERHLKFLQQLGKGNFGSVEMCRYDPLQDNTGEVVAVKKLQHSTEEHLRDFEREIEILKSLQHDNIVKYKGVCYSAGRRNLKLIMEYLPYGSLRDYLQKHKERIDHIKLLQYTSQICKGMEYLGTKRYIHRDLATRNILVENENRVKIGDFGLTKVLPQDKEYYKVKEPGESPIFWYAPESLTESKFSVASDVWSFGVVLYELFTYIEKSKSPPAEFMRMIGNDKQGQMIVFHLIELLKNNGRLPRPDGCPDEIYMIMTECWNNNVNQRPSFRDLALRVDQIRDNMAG
# How it was run: (§1)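 GST-JAK + GFP-STAT1 peptide, HEPES pH 7.5/MgCl2/EGTA/Brij-35 buffer; cpd preincubation 1 h RT; ATP start, 1 h RT; stop with 10 mM EDTA + 2 nM Tb-anti-pSTAT1; TR-FRET 520/495. 4-parameter IC50 → pKi (Cheng-Prusoff).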
# Tyk2 = Tyk2 (Homo sapiens (Human), UniProt P29597); experiment: Biochemical Tyk2 kinase assay (LanthaScreen)
# Chain of Tyk2 (P29597 whole entry): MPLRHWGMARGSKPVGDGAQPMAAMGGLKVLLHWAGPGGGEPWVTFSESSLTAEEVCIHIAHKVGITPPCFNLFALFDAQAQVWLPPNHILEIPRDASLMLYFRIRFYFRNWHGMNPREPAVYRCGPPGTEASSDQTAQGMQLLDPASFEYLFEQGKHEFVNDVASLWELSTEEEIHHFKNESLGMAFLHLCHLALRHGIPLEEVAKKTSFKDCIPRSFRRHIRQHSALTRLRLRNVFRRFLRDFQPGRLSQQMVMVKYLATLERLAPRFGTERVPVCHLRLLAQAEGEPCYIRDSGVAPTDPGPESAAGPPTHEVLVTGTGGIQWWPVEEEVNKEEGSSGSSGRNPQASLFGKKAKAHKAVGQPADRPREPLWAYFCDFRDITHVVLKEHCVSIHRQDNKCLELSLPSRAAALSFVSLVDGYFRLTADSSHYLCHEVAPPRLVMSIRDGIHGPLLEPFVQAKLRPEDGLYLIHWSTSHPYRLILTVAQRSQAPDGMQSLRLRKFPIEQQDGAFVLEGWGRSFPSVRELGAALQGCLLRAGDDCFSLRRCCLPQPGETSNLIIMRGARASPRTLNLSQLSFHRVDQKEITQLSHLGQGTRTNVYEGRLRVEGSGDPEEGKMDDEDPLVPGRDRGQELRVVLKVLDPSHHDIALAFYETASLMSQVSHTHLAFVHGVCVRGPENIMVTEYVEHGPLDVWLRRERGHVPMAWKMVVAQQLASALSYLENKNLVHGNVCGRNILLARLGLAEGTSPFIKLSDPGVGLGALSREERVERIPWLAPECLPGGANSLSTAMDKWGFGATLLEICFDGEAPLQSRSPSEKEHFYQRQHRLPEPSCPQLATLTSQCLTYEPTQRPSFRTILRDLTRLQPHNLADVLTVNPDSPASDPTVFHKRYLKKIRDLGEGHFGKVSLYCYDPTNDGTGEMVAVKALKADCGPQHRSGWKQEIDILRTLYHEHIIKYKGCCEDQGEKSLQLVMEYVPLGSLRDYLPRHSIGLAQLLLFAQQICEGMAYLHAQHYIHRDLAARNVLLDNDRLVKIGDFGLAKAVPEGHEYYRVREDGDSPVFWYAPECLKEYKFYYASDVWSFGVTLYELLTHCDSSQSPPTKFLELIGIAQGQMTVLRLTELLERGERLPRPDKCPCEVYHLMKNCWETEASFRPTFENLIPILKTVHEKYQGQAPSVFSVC
# How it was run: as §1
# JAK3 = JAK3 (Homo sapiens (Human), UniProt P52333); experiment: Biochemical JAK3 kinase assay (LanthaScreen); settings: for JAK3 (pKi)-JAK1 (pKi): selectivity JAK3 over JAK1, difference of pKi
# Chain of JAK3 (P52333 whole entry): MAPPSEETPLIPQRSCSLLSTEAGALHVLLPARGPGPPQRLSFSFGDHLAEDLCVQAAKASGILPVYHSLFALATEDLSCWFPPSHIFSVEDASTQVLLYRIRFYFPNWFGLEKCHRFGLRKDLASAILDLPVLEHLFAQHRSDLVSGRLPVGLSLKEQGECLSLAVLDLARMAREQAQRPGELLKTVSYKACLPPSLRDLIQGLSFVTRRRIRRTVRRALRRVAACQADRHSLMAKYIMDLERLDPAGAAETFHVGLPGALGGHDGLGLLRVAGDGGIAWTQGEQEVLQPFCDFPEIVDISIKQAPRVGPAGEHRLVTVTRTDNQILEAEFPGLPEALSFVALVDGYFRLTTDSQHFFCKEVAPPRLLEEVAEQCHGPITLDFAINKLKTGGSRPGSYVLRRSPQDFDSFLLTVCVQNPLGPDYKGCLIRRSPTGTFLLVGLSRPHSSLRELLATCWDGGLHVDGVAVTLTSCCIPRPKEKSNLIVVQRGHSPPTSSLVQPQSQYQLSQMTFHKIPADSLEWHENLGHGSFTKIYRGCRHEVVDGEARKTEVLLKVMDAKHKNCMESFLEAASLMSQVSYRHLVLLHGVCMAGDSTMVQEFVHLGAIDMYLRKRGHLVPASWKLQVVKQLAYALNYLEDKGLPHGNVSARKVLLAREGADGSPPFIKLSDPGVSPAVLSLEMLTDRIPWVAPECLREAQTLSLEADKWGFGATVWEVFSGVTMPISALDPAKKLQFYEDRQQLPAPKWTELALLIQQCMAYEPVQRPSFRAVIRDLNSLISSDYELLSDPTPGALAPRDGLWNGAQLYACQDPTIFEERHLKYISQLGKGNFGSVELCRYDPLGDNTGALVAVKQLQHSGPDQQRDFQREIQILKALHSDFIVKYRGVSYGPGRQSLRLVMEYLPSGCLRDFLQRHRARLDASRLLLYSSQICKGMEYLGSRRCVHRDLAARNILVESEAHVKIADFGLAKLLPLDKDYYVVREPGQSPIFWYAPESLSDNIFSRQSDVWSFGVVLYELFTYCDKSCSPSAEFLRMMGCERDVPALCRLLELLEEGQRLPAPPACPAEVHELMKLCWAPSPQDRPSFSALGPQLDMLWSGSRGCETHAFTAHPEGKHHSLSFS
# How it was run: as §1
# JAK1 = JAK1 (Homo sapiens (Human), UniProt P23458); experiment: Biochemical JAK1 kinase assay (LanthaScreen)
# Chain of JAK1 (P23458 whole entry): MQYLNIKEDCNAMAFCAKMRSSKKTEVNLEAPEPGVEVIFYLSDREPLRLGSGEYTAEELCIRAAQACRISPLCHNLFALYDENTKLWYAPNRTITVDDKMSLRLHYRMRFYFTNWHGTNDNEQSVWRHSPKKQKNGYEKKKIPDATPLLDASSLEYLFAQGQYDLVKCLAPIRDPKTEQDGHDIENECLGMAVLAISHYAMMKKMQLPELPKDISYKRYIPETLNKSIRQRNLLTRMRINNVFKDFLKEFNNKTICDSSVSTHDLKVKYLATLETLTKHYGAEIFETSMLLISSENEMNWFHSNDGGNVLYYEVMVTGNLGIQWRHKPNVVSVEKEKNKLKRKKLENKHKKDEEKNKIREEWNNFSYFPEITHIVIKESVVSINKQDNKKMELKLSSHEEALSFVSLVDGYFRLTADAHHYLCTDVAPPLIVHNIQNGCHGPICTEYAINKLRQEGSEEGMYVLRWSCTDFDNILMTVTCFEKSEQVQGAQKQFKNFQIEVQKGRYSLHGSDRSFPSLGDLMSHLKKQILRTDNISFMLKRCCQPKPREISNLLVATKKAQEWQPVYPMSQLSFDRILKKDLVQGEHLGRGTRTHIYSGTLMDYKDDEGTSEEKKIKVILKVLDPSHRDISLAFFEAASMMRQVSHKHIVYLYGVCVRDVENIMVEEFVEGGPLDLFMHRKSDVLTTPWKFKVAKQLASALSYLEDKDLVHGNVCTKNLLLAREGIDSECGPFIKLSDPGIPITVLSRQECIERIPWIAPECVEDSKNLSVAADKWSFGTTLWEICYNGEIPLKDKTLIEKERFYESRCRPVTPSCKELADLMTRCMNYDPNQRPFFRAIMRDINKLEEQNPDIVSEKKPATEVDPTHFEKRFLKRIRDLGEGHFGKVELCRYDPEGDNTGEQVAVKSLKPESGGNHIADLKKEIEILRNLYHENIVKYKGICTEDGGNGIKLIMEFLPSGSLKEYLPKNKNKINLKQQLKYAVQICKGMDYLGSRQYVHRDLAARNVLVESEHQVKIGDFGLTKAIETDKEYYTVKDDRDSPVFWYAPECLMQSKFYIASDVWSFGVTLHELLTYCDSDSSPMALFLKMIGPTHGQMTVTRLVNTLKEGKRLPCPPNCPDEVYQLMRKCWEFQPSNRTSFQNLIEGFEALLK
# How it was run: as §1
Compound,Tall-1 (pIC50) [1],JAK 2 (pKi) (JAK2),Tyk 2 (pKi) (Tyk2),JAK 3 (pKi) (JAK3),JAK3 (pKi)-JAK1 (pKi) (JAK3),JAK 1 (pKi) (JAK1)
C=CC(=O)N1CCN(CCn2c(=O)ccc3cnc(Nc4ccc(N5CCN(C)CC5)cc4)nc32)[C@@H](C)C1 [Example 160],A (A represents a pIC50 value≥7.5 (IC50≤32 nM)),E (E represents a pKi value of 7 or below (Ki of 100 nM or above)),E (E represents a pKi value of 7 or below (Ki of 100 nM or above)),B (B represents pKi value between 9 and 10 (Ki between 1 nM and 0.1 nM)),A (A represents a value of 3 or above),E (E represents a pKi value of 7 or below (Ki of 100 nM or above))
C=CC(=O)N1CC(C)(CCn2c(=O)ccc3cnc(Nc4ccc(N5CCN(C(C)=O)CC5)cc4)nc32)C1 [Example 161],A (A represents a pIC50 value≥7.5 (IC50≤32 nM)),E (E represents a pKi value of 7 or below (Ki of 100 nM or above)),E (E represents a pKi value of 7 or below (Ki of 100 nM or above)),B (B represents pKi value between 9 and 10 (Ki between 1 nM and 0.1 nM)),A (A represents a value of 3 or above),E (E represents a pKi value of 7 or below (Ki of 100 nM or above))
C=CC(=O)N1CC(CCn2c(=O)ccc3cnc(Nc4ccc(N5CCN(C)C[C@@H]5C)cc4)nc32)C1 [Example 163],A (A represents a pIC50 value≥7.5 (IC50≤32 nM)),E (E represents a pKi value of 7 or below (Ki of 100 nM or above)),E (E represents a pKi value of 7 or below (Ki of 100 nM or above)),B (B represents pKi value between 9 and 10 (Ki between 1 nM and 0.1 nM)),A (A represents a value of 3 or above),E (E represents a pKi value of 7 or below (Ki of 100 nM or above))
C=CC(=O)N1CCN(C(C)(C)Cn2c(=O)ccc3cnc(Nc4ccc(N5CCN(C)CC5)cc4)nc32)CC1 [Example 164],C (C represents a pIC50 value between 6 and 6.7 (IC50 between 1 μM and 200 nM)),E (E represents a pKi value of 7 or below (Ki of 100 nM or above)),E (E represents a pKi value of 7 or below (Ki of 100 nM or above)),B (B represents pKi value between 9 and 10 (Ki between 1 nM and 0.1 nM)),A (A represents a value of 3 or above),E (E represents a pKi value of 7 or below (Ki of 100 nM or above))
C=CC(=O)N1CC(CCn2c(=O)ccc3cnc(Nc4ccc(N5CCN(C)[C@@H](C)C5)cc4)nc32)C1 [Example 165],A (A represents a pIC50 value≥7.5 (IC50≤32 nM)),E (E represents a pKi value of 7 or below (Ki of 100 nM or above)),E (E represents a pKi value of 7 or below (Ki of 100 nM or above)),A (A represents a pKi value≥10 (Ki≤0.1 nM)),A (A represents a value of 3 or above),E (E represents a pKi value of 7 or below (Ki of 100 nM or above))
C=CC(=O)N1CC(CCn2c(=O)ccc3cnc(Nc4ccc(N5CCN(C)CC5)c(C)c4)nc32)C1 [Example 166],A (A represents a pIC50 value≥7.5 (IC50≤32 nM)),E (E represents a pKi value of 7 or below (Ki of 100 nM or above)),E (E represents a pKi value of 7 or below (Ki of 100 nM or above)),A (A represents a pKi value≥10 (Ki≤0.1 nM)),A (A represents a value of 3 or above),E (E represents a pKi value of 7 or below (Ki of 100 nM or above))
C=CC(=O)N1CC(CCn2c(=O)ccc3cnc(Nc4ccc(N5CCN(C(C)=O)C[C@@H]5C)cc4)nc32)C1 [Example 168],A (A represents a pIC50 value≥7.5 (IC50≤32 nM)),E (E represents a pKi value of 7 or below (Ki of 100 nM or above)),E (E represents a pKi value of 7 or below (Ki of 100 nM or above)),A (A represents a pKi value≥10 (Ki≤0.1 nM)),A (A represents a value of 3 or above),E (E represents a pKi value of 7 or below (Ki of 100 nM or above))
C=CC(=O)N1CC(CCn2c(=O)ccc3cnc(Nc4ccc(N5CCN(C(C)=O)[C@H](C)C5)cc4)nc32)C1 [Example 169],A (A represents a pIC50 value≥7.5 (IC50≤32 nM)),E (E represents a pKi value of 7 or below (Ki of 100 nM or above)),E (E represents a pKi value of 7 or below (Ki of 100 nM or above)),A (A represents a pKi value≥10 (Ki≤0.1 nM)),A (A represents a value of 3 or above),E (E represents a pKi value of 7 or below (Ki of 100 nM or above))
C=CC(=O)N1CCN(CCn2c(=O)ccc3cnc(Nc4ccc(N5CCN(S(C)(=O)=O)CC5)cc4)nc32)[C@@H](C)C1 [Example 176],B (B represents a pC50 value between 6.7 (included) and 7.5 (IC50 between 200 nM and 32 nM)),E (E represents a pKi value of 7 or below (Ki of 100 nM or above)),E (E represents a pKi value of 7 or below (Ki of 100 nM or above)),A (A represents a pKi value≥10 (Ki≤0.1 nM)),A (A represents a value of 3 or above),E (E represents a pKi value of 7 or below (Ki of 100 nM or above))
C=CC(=O)N1CC(CCn2c(=O)ccc3cnc(Nc4ccc(N5CCN(C(F)(F)F)CC5)cc4)nc32)C1 [Example 177],B (B represents a pC50 value between 6.7 (included) and 7.5 (IC50 between 200 nM and 32 nM)),E (E represents a pKi value of 7 or below (Ki of 100 nM or above)),E (E represents a pKi value of 7 or below (Ki of 100 nM or above)),B (B represents pKi value between 9 and 10 (Ki between 1 nM and 0.1 nM)),A (A represents a value of 3 or above),E (E represents a pKi value of 7 or below (Ki of 100 nM or above))
C=CC(=O)N1CC(CCn2c(=O)ccc3cnc(Nc4ccc(N5CCN(C(C)=O)CC5)c(F)c4)nc32)C1 [Example 181],B (B represents a pC50 value between 6.7 (included) and 7.5 (IC50 between 200 nM and 32 nM)),E (E represents a pKi value of 7 or below (Ki of 100 nM or above)),E (E represents a pKi value of 7 or below (Ki of 100 nM or above)),B (B represents pKi value between 9 and 10 (Ki between 1 nM and 0.1 nM)),A (A represents a value of 3 or above),E (E represents a pKi value of 7 or below (Ki of 100 nM or above))
C=CC(=O)N1CC(CCn2c(=O)ccc3cnc(Nc4ccc(N5CCN(C(C)=O)CC5)c(Cl)c4)nc32)C1 [Example 182],B (B represents a pC50 value between 6.7 (included) and 7.5 (IC50 between 200 nM and 32 nM)),E (E represents a pKi value of 7 or below (Ki of 100 nM or above)),E (E represents a pKi value of 7 or below (Ki of 100 nM or above)),A (A represents a pKi value≥10 (Ki≤0.1 nM)),A (A represents a value of 3 or above),E (E represents a pKi value of 7 or below (Ki of 100 nM or above))
C=CC(=O)N1CC(CCn2c(=O)ccc3cnc(Nc4ccc(N5CCN(C(C)=O)CC5)nc4)nc32)C1 [Example 183],C (C represents a pIC50 value between 6 and 6.7 (IC50 between 1 μM and 200 nM)),E (E represents a pKi value of 7 or below (Ki of 100 nM or above)),E (E represents a pKi value of 7 or below (Ki of 100 nM or above)),A (A represents a pKi value≥10 (Ki≤0.1 nM)),A (A represents a value of 3 or above),E (E represents a pKi value of 7 or below (Ki of 100 nM or above))
C=CC(=O)N1CC(C(C)(C)Cn2c(=O)ccc3cnc(Nc4ccc(N5CCN(C(C)=O)CC5)cc4)nc32)C1 [Example 184],B (B represents a pC50 value between 6.7 (included) and 7.5 (IC50 between 200 nM and 32 nM)),E (E represents a pKi value of 7 or below (Ki of 100 nM or above)),E (E represents a pKi value of 7 or below (Ki of 100 nM or above)),A (A represents a pKi value≥10 (Ki≤0.1 nM)),A (A represents a value of 3 or above),E (E represents a pKi value of 7 or below (Ki of 100 nM or above))
